# Tests used:
# Type in all cases: cell-based, Porcine
# Settings in all cases: 1 μM, 5 μM or 20 μM, 24 hr at 37° C.
# SIRT1 = SIRT1 immunofluorescence in iPEC-1 cells treated with ursolic acid
# Method: (§1) iPEC-1 cells were grown as a monolayer in DMEM with 10% fetal bovine serum (FBS) and the necessary supplements at 37° C. in a humidified incubator with 5% CO2. iPEC1 cells were seeded on 35 mm dishes. Experiments were initiated 48 hr after plating. Cells were treated with saline or with ursolic acid at three separate dosages (1 μM; 5 μM; or 20 μM) in the medium for 24 hr at 37° C. The cells were then washed with ice-cold PBS and fixed with 4% paraformaldehyde for 10 min at room temperature followed by permeabilization with 0.3% Triton X-100 for 10 min. After being washed with PBS three times, cells were incubated for 1 hr in PBS containing 10% normal goat serum blocking solution. The cells were subjected to immunofluorescence staining with the target specific antibodies (SIRT1, CLOCK and Bmal1) overnight at 4° C. The cells were then washed with cold PBS three times for 3 min each, and incubated with Alexa-labeled secondary antibodies (Invitrogen) at room temperature for 1 h. The cells were examined by fluorescence microscopy (a Nikon TE2000-S microscope, Nikon, Tokyo, Japan).
# CLOCK = CLOCK immunofluorescence in iPEC-1 cells treated with ursolic acid
# Method: as §1
# Bmal1 = Bmal1 immunofluorescence in iPEC-1 cells treated with ursolic acid
# Method: as §1
smiles,measurement,setting,value
C[C@H]1[C@H](C)CC[C@]2(C(=O)O)CC[C@]3(C)C(=CC[C@@H]4[C@@]5(C)CC[C@H](O)C(C)(C)[C@@H]5CC[C@]43C)[C@H]12 [ursolic acid],intensity of immunofluorescence of SIRT1 compared with controls,SIRT1,significantly induced the intensity of immunofluorescence
same,intensity of immunofluorescence of CLOCK compared with controls,CLOCK,significantly induced the intensity of immunofluorescence
same,intensity of immunofluorescence of Bmal1 compared with controls,Bmal1,significantly induced the intensity of immunofluorescence
